For series [1], the system named is mice. Put plainly: Tail suspension assay in mice. The format is in vivo. Here is the method:
Another method of measuring antidepressant activity that may be used to evaluate the compounds of the present invention is the tail suspension test in mice described in Vogel, H. G. and Vogel, W. H. (Eds.) Drug Discovery and Evaluation, Springer-Verlag Berlin Heidelberg, 1997) pp. 304-3059). The mouse tail suspension assay was conducted 60 minutes after dosing. The duration of immobility was recorded for a period of 5 minutes after tail suspension was initiated, and reduction in the duration of immobility by ≥50% relative to the control group indicated antidepressant activity. Statistical analysis was also performed by using one-way ANOVA followed by Dunnett's test to compare the data of test compound-treated and vehicle control groups. Significance was considered to be P<0.05.

The test system of series [2] is phosphorylation of CREB in SN56 and T48 cell lines. Put plainly: CREB phosphorylation in SN56 and T48 cell lines (western blot). The format is cell-based, mouse. Conditions: both cell lines (SN56 and T48). The protocol: The purpose of the study was to assess the acute biochemical neuronal changes in neurotrophin and synaptic plasticity signaling in vitro after the incubation in SN56 (fusion of mouse septal area cells and neuroblastoma cells with no TRKB expression) and T48 (SN56 stable transfected to express TrkB) cell lines the Examples 3 and 4. These changes were studied with a western blot assessment of Erk, Akt, PLC, Trkb, BDNF and CREB (cAMP response element-binding protein) phosphorilation assays.
Proteins were denatured in 62.5 mM Tris-HCl (pH 6.8), 2% (w/v) SDS, 10% glycerol, 140 mM β-mercaptoethanol and 0.1% (w/v) bromophenol blue, heated at 100° C. for 5 min (except for VGLUT1 blotting: 10 minutes 60° C.) and resolved in denaturing polyacrylamide gels (8% acrylamide); proteins were transferred to a nitrocellulose membrane), and washed twice in Tris-buffered saline containing 0.1% Tween-20 (TBS-T). […]
After primary antibody incubation, membranes were washed with TBS-T and incubated for 1 h at room temperature with the appropriated horseradish peroxidase-conjugated secondary antibody (Promega, Madison, Wis., USA), and the reaction was finally visualized with the Western Blotting Luminol Reagent (Santa Cruz Biotechnology, Santa Cruz, Calif., USA). Western blot replicates were scanned and quantified using a computer-assisted densitometric analysis. […]

The next series deals with uptake of norepinephrine (Homo sapiens, UniProt P23975). Kind of series: Uptake inhibition of norepinephrine, cellular assay. To be noted: read-out: Norepinephrine reuptake inhibition (IC50 μM). The format is cell-based. The protocol: (§1) The effect of the compounds of the present invention as inhibitors of the uptake of norepinephrine and serotonin in cellular assays at concentrations that range from […] to 1 nM is determined following the methods described in Galli, A. et al. J Exp Biol 1995, 198(Pt. 10): 2197-212 and Gu, H. et al. J Biol Chem. 1994, 269(10):7124-30.
uptake of norepinephrine, sequence (P23975 whole entry): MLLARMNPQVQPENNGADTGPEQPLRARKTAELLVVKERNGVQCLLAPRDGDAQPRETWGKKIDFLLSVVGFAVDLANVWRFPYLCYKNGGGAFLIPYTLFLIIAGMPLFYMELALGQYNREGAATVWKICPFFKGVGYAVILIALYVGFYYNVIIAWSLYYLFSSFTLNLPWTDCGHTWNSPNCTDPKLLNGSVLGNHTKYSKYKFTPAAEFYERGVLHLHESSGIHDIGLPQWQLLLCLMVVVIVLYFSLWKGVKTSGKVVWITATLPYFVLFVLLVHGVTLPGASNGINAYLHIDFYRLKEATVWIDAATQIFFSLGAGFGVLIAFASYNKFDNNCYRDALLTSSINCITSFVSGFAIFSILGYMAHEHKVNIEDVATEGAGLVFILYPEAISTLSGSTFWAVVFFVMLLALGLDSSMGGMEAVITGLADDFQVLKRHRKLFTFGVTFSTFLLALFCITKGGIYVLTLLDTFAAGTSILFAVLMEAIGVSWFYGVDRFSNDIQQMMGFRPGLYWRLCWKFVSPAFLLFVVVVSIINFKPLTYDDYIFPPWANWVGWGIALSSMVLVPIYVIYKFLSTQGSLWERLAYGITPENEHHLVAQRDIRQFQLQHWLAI

For series [3], the target named is T1, norepinephrine (NE) transporter (Homo sapiens, UniProt P23975).
T1 construct: expressed in transfected cells; host or cells: CHO cells
T1 sequence (P23975 whole entry): as above
Kind of series: Norepinephrine transporter binding radioligand inhibition ([3H]-nisoxetine). Conditions: concentration 10 μM. Here is the method: The norepinephrine (NE) transporter removes NE from the synaptic cleft. The NE transporter terminates the effects of […], enabling its reuse by the presynaptic neuron. The in vitro binding of the compounds of the invention to the NE transporter and the percent inhibition of control-specific binding ([^3H]-nisoxetine in human recombinant CHO cells) is determined following the method described in Pacholczyk et al., (Nature 1991, 350(6316): 350-4.

The test system of a further series is CHO cells. Put plainly: In vitro MTT toxicity screen. It is filed as cell-based, Chinese hamster. To be noted: 10 μM, compared to positive control group (10% DMSO). Here is the method: The toxicity of the compounds of the present invention at a concentration of 10 μM has been explored using the tetrazolium salt (MTT) method in CHO cells. The MTT method involving conversion of MTT to colored formazan by cells serves as an indirect measurement of cell growth/cell kill, as reported by several groups (Paimela, T. et al. Mol Vis 2012; 18: 1189-96; Hansen, M. B. et al. J Immunol Methods 1989, 119(2): 203-10).
In the MTT assay, cytotoxicity is correlated with the color of MTT and is measured with a spectrophotometer at the wavelength of 570 nm. Briefly, fresh MTT solution (10 mg/mL in 1×PBS) was added (1:20 volume of medium) and the cells were incubated for 1.5 hours. The cells were lysed and purple formazan was dissolved into the solution by overnight incubation with MTT lysis buffer (20% SDS, 50% N,N-dimethylformamide, 2% acetic acid, 25 mM HCl; the volume of medium+volume of MTT salt solution).

In the next series the target is T2, serotonin transporter (Homo sapiens, UniProt P31645).
T2 construct: expressed in transfected cells; host or cells: CHO cells
T2 sequence (P31645 whole entry): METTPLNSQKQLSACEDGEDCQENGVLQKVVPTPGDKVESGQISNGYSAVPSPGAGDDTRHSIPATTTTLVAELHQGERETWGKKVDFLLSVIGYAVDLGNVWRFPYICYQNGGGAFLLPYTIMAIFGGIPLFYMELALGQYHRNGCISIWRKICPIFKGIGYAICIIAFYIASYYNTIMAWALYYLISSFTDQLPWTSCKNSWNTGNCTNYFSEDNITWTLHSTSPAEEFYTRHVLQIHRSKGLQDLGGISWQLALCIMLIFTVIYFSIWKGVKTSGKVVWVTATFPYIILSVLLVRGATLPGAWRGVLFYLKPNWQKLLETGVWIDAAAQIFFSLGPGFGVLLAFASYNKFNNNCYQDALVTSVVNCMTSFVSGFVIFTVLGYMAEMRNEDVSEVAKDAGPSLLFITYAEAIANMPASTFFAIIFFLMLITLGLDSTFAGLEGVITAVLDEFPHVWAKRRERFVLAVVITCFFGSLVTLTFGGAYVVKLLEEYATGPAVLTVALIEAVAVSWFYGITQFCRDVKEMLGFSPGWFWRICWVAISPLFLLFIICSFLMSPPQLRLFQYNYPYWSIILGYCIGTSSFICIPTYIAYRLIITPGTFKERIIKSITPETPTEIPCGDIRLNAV
Kind of series: Serotonin transporter binding radioligand inhibition ([3H]-imipramine). Conditions: concentration 10 μM; read-out: serotonin binding inhibition. The text has this: The serotonin transporter removes serotonin from the synaptic deft. The serotonin transporter terminates the effects of […], enabling its reuse by the presynaptic neuron.

Series [4] relates to mice. Put plainly: Mouse formalin assay (analgesic activity). It is filed as in vivo. The protocol:
The analgesic activity of the compounds of the present invention is determined making use of the mouse formalin test described in Hunskaar, S. J Neurosci Methods 1985, 14(1): 69-76. The hind paw licking time was measured at 5-minute intervals for 30 minutes following subplantar injection of formalin (0.02 mL, 2%). Statistical analysis using one-way ANOVA followed by Dunnett's test was applied for comparison between the test substance-treated and vehicle control groups. P<0.05 was considered significant.

The target in the next series is uptake of serotonin (Homo sapiens, UniProt P31645). Kind of series: Uptake inhibition of serotonin, cellular assay. The format is cell-based. Conditions: read-out: Serotonin reuptake inhibition (IC50 μM). Here is the method: as §1
uptake of serotonin, sequence (P31645 whole entry): as above
In series [5] the test system is mice. Put plainly: Novel object recognition test (acute). The format is in vivo. Conditions: same experimental conditions. The text has this:
The novel object recognition task is used to evaluate cognition, particularly memory recognition, in rodent models of CNS disorders. This test is based on the spontaneous tendency of rodents to spend more time exploring a novel object than a familiar one. The choice to explore the novel object reflects the use of learning and memory recognition. The novel object recognition test provides a measure of activity in a novel environment allowing tests for emotional reactivity and also for novel object recognition, a cognitive domain that depends on hippocampal functional integrity. Animals were habituated to the presence of two identical objects (LEGO® pieces) during a single session of 5 minutes (training) and sniffing (exploration of an object was defined as pointing the nose to the object at a distance of <1 cm and/or touching it with the nose). Mice were injected with saline or with the compound to be tested and returned to their home cages. At 24 hours the animals were introduced in the same open field again with the same two items (familiarization), and again exploration in each of them for 5 minutes was registered. One hour later, the mice were retested in the open field for 3 minutes, but this time with one of the “familiar” objects replaced by a new one (test). To analyze cognitive performance, a discrimination index was calculated as the difference in time exploring the novel and familiar object, expressed as the ratio of the total time spent exploring both objects, which made it possible to adjust for any differences in total exploration time. This test is useful for assessing impaired cognitive ability in transgenic strains of mice and evaluating novel chemical entities for their effect on cognition (Zhang, R. J Alzheimers Dis 2012, 31(4): 801-12). […] Neuroplasticity 2007, 26496).

Series [6] addresses T3, Human dopamine transporters (Homo sapiens, UniProt Q01959).
T3 construct: expressed in transfected cells; host or cells: CHO-K1 cells (membranes)
Kind of series: Binding to the dopamine transporter ([125I]-RTI-55). Conditions: reference compound; read-out: IC50, [125I]-RTI-55 binding to DAT. The protocol:
Human dopamine transporters expressed in CHO—K1 cells are used in modified Tris-HCl buffer at pH 7.4. […] Non-specific binding is estimated in the presence of […] nomifensine.

The mark [7] stands for this setting: 30 mg/kg oral, 60 minutes after dosing.

T3 sequence (Q01959 whole entry): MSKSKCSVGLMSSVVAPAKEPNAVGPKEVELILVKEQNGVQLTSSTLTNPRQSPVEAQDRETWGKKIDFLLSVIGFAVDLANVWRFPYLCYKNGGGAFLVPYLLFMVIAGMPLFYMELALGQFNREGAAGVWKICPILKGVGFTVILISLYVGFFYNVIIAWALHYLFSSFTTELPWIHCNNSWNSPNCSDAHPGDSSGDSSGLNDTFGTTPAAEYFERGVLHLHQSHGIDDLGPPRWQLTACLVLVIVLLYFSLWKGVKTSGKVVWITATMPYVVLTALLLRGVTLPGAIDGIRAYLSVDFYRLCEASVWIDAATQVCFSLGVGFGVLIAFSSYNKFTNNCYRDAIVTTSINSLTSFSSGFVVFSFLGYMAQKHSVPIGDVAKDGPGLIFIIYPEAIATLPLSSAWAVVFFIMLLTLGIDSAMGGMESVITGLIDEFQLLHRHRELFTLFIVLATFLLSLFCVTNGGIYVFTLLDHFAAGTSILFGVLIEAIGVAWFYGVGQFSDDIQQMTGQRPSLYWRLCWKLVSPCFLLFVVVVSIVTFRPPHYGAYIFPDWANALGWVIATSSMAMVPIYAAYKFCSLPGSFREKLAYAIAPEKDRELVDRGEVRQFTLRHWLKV

As for `CNCCCN1c2ccccc2CCc2ccccc21` [Desipramine, reference compound], the “antidepressant effect (duration of immobility)” value (from here on “antidepressant effect”) in the series with mice [1] (setting [7]) is given as “significant effect”.
Consider `CNCC[C@@H](Oc1ccc(CCO)cc1)c1ccccc1.Cl` [Example 3, (R)-2-[4-[3-(Methylamino)-1-phenylpropoxy]phenyl]ethanol hydrochloride], for which the “antidepressant effect” value with mice [1] (90 mg/kg p.o.) is on record as “active”. Further, the “phosphorylation of CREB” value in series [2] is recorded as “increase significantly”. Also, the results for the IC50 at uptake of norepinephrine and at uptake of serotonin were 1.6 to 2.9 µM and 2.5 to 4.8 µM, respectively. Also, the inhibition at 10 µM was 65 to 90% in series [3] and 68 to 82% on serotonin transporter. The “cell viability (MTT)” value with CHO cells came out at 100%. In the series on mice [4] (90 mg/kg oral), the “analgesic activity following formalin challenge (hind paw licking time)” value was “active”.
For the compound `CNCC[C@H](Oc1ccc(CCO)cc1)c1ccccc1.Cl` [Example 4, (S)-2-[4-[3-(Methylamino)-1-phenylpropoxy]phenyl]ethanol hydrochloride], the results for the “antidepressant effect” value in the series on mice [1] (setting [7]) and in the series with mice [1] (90 mg/kg p.o.) were “significant activity” and “active”, respectively. The “phosphorylation of CREB” value in series [2] is reported as “increase significantly”. For the same compound, the IC50 was in the range of 1.6 to 2.9 µM on uptake of norepinephrine and 2.5 to 4.8 µM at uptake of serotonin. The inhibition at 10 µM in series [3] was 65 to 90%; on serotonin transporter it was 68 to 82%. Moreover, the “cell viability (MTT)” value with CHO cells was 100%. For the same compound, the “analgesic activity following formalin challenge (hind paw licking time)” value in the series with mice [4] (30 mg/kg oral) and with mice [4] (90 mg/kg oral) was “active” throughout.
Compound `Cl.NCCC(Oc1ccc(CCO)cc1)c1ccccc1` (centres unmarked) [Example 12, 2-[4-(3-Amino-1-phenylpropoxy)phenyl]ethanol hydrochloride] displayed a melting point of 68 to 70 °C. In addition, the half-maximal inhibitory concentration (IC50) on uptake of norepinephrine came out at 2.7 µM. In series [3], this compound yielded an inhibition at 10 µM of 79%. In addition, the inhibition at 10 µM at serotonin transporter is 78%. Besides, the half-inhibitory concentration (IC50) on uptake of serotonin came to 1 µM.
Compound `Cl.OCCc1ccc(OCC2CNCCO2)cc1` (centres unmarked) [Example 18, 2-[4-(Morpholin-2-ylmethoxy)phenyl]ethanol hydrochloride] came in with a melting point of 163 to 169 °C. For the same compound, the concentration for half-maximal inhibition (IC50) at uptake of norepinephrine fell in the range of 1.6 to 2.9 µM. Also, in series [3], the inhibition at 10 µM lay within 65 to 90%. Also, the “cell viability (MTT)” value in the series with CHO cells was 100%. Moreover, the inhibition at 10 µM on serotonin transporter was 68 to 82%. Also, the “analgesic activity following formalin challenge (hind paw licking time)” value in the series with mice [4] (90 mg/kg oral) is “demonstrated analgesic activity”. For the same compound, at uptake of serotonin, the half-inhibitory concentration (IC50) fell in the range of 2.5 to 4.8 µM.
Consider `CNCCC(Oc1ccc(C(F)(F)F)cc1)c1ccccc1` (centres unmarked) [Fluoxetine, reference compound], for which the cognitive improvement entry in the series with mice [5] (30 mg/kg i.p.) is “absence of cognitive improvement”.
Same read-out and setting: the same measure for `CCN(CC)C(=O)C1(c2ccccc2)CC1CN` (centres unmarked) [milnacipran, reference compound]: “absence of cognitive improvement”.
For the compound `C#CCN[C@@H]1CCc2ccccc21` [rasagiline, reference compound], the cognitive improvement result with mice [5] (3 mg/kg i.p.) was “absence of cognitive improvement”.
For `COC(=O)[C@H]1[C@H]2C[C@@H]3c4[nH]c5cc(OC)ccc5c4CCN3C[C@H]2C[C@@H](OC(=O)c2cc(OC)c(OC)c(OC)c2)[C@@H]1OC` [reserpine, reference compound], the IC50 in [6] came to 1300 nM.
